Results on four molecules are retold here after publication PMC9601806, “Calcium Binding Mechanism of Soybean Peptide with Histidine Alteration by Molecular Docking Analysis and Spectroscopic Methods” (Foods, 2022).

The conditions of data set [1]: cited from earlier work. As to the method:
To clarify the calcium-binding capacity of CBP-H, Nanjing Peptide Biotechnology Corporation. Ltd. (Nanjing, China) synthesized the peptide CBP-H using a solid-phase procedure. High performance liquid chromatography (HPLC) analysis was performed to determine the purity (98%) of CBP-H (Figure S1A), and ESI mass spectrometry was used to confirm the peptide structure. […] In addition, the CBP-H–Ca complex was prepared, followed by ICP-AES to detect the calcium-binding capacity. […] Spectroscopic methods were used to analyze the binding mode and binding sites including ITC, UV, FTIR, and XRD. Isothermal titration calorimetry was always used to measure reversible reactions between bio-molecules. This methodology provided the affinity constant, stoichiometry, enthalpy, and entropy of the biomolecular interactions.

Data set [2] can be described thus: Simulated gastrointestinal digestion and Caco-2 absorption, LC-MS/MS identification. The class given is in vitro ADME. The settings on record: pepsin pH 2, 37 °C, 90 min, then trypsin and bile salts pH 7.5, Caco-2 absorption 0.1 mg/mL, 2 h. As to the method:
The simulation of gastrointestinal digestion was carried out following the method described before with some modifications. The gastric set was reproduced by the suspension of porcine pepsin (40 mg) into 1 mL 0.1N HCl. The intestinal stage was stimulated by adding bile salts (40 mg) and trypsin (10 mg) into 5 mL of 0.1 mol/L NaHCO3. Gastric digestion was performed by incubating the CBP–calcium complex or CaCl2 (prepared with equal Ca^2+ concentration, pH = 2) at a pepsin/substrate ratio of 1:100 (w/w) in a water bath shaker (37 °C, 90 min). […], the […] at 1:25 (w/w) of substrates was added, following by adjusting the pH to 7.5. After that, samples were removed after deactivating trypsin by thermal denaturation for 5 min. Then, the obtained samples were lyophilized and stored at −20 °C for the sake of subsequent studies.
The human intestinal Caco-2 cell line has been extensively used as an intestinal barrier model. These cells were cultured in high-glucose Dulbecco’s Eagle’s medium (DMEM), which contained 10% fetal bovine serum (FBS), 100 μg mL^−1 streptomycin, and 100 U mL^−1 penicillin, and were incubated at 37 °C in a humidified 5% CO2 incubator. Transepithelial transport through the Caco-2 single cell layer was performed in accordance with Wang et al.’s method. […]

Residues, ends and D or L forms follow the SMILES beside them.

As to “GPAGPHGPVG [tilapia bone collagen peptide, literature comparison]”, in data set [1] (tilapia bone collagen peptide), the calcium-binding capacity is on record as 18.80 ± 0.49 mg/g.

In the case of `CC[C@H](C)[C@H](NC(=O)[C@H](CCC(N)=O)NC(=O)[C@H](CCC(=O)O)NC(=O)[C@H](CC(=O)O)NC(=O)[C@H](CCC(=O)O)NC(=O)[C@@H](N)CC(=O)O)C(=O)N1CCC[C@H]1C(=O)N[C@@H](CO)C(=O)N[C@@H](Cc1c[nH]cn1)C(=O)N1CCC[C@H]1C(=O)N1CCC[C@H]1C(=O)N[C@@H](CCCNC(=N)N)C(=O)O` [CBP, Asp-Glu-Asp-Glu-Gln-IIe-Pro-Ser-His-Pro-Pro-Arg] (H-DEDEQIPSHPPR-OH), the “stability after simulated gastrointestinal digestion” value in data set [2] is on record as “partially stable”.

Take `CC[C@H](C)[C@H](NC(=O)[C@H](CCC(N)=O)NC(=O)[C@H](CCC(=O)O)NC(=O)[C@H](CC(=O)O)NC(=O)[C@H](CCC(=O)O)NC(=O)[C@@H](N)CC(=O)O)C(=O)N1CCC[C@H]1C(=O)N[C@@H](CO)C(=O)N[C@@H](CC(C)C)C(=O)N1CCC[C@H]1C(=O)N1CCC[C@H]1C(=O)N[C@@H](CCCNC(=N)N)C(=O)O` [CBP-H, Asp-Glu-Asp-Glu-Gln-IIe-Pro-Ser-Leu-Pro-Pro-Arg] (H-DEDEQIPSLPPR-OH): the “stability after simulated gastrointestinal digestion” value in data set [2] is on record as “partially stable”.

In the case of Thr-Cys-His, the calcium binding capacity in data set [1] (peptide from shrimp protein hydrolysates) is on record as 2.7 mmol/g.
